# Laboratory results as given in paper PMC9374744, “Structural basis for receptor selectivity and inverse agonism in S1P5 receptors” (Nature Communications, 2022).
# Where “and” joins values, the source holds several entries; their conditions need not be identical. Equal entries are not always repeated.
# Tests used:
# human S1P5 K24A mutant = human S1P5 K24A mutant (Homo sapiens, UniProt Q9H228, K24A); assay: BRET-based cAMP Gi signaling assay, S1P5 K24A; conditions: inverse agonism
# human S1P5 L292A mutant = human S1P5 L292A mutant (Homo sapiens, UniProt Q9H228, L292A); assay: BRET-based cAMP Gi signaling assay, S1P5 L292A; conditions: inverse agonism
# Sequence of human S1P5 L292A mutant (Q9H228 whole entry L292A): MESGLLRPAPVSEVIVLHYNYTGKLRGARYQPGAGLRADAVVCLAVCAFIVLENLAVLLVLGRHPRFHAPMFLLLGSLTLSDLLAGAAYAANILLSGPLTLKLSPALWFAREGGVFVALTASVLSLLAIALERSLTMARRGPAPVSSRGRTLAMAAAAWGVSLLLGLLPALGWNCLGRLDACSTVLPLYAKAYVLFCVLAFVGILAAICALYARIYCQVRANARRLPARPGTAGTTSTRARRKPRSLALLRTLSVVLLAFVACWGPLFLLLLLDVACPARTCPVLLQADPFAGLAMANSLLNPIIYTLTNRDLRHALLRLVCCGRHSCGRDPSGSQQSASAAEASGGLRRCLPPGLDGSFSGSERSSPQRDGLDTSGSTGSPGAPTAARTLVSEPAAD
# human WT S1P5 receptor = human WT S1P5 receptor (Homo sapiens, UniProt Q9H228); assay: BRET-based cAMP (EPAC biosensor) Gi signaling assay, WT S1P5; conditions: for BRET signal, raw replicate readings: WT, listed as ONO; for EC50: inverse agonism
# Sequence of human WT S1P5 receptor (Q9H228 whole entry): as the sequence (Q9H228 whole entry L292A) above, with A292L counted along it
# human S1P5 V115L mutant = human S1P5 V115L mutant (Homo sapiens, UniProt Q9H228, V115L); assay: BRET-based cAMP Gi signaling assay, S1P5 V115L; conditions: inverse agonism
# Sequence of human S1P5 V115L mutant (Q9H228 whole entry V115L): as the sequence (Q9H228 whole entry L292A) above, with V115L, A292L counted along it
# human S1P5 Y89A mutant = human S1P5 Y89A mutant (Homo sapiens, UniProt Q9H228, Y89A); assay: BRET-based cAMP Gi signaling assay, S1P5 Y89A; conditions: inverse agonism
# Sequence of human S1P5 Y89A mutant (Q9H228 whole entry Y89A): as the sequence (Q9H228 whole entry L292A) above, with Y89A, A292L counted along it
# [1] = Figure 2c source data, N/R = no response
# Sequence of human S1P5 K24A mutant (Q9H228 whole entry K24A): as the sequence (Q9H228 whole entry L292A) above, with K24A, A292L counted along it
smiles,measurement,setting,value
"O=C(O)CCCN1CCc2cccc(OCCc3cccc4ccccc34)c2CC1 [ONO-5430608, 4-{6-[2-(1-naphthyl)ethoxy]-1,2,4,5-tetrahydro-3H-3-benzazepin-3-yl} butanoic acid]","ONO-5430608 pEC50, single experiments #1-#3",human S1P5 K24A mutant; [1],N/R
same,"ONO, pEC50, M","human S1P5 K24A mutant; n=3, N/R = no response",N/R
same,EC50,"human S1P5 L292A mutant; ONO, pEC50, M, L292A, mean ± SD, n=3",21.9 nM
same,EC50,"human S1P5 L292A mutant; ONO-5430608 pEC50, single experiments #1-#3, L292A, Figure 2c source data",18.9 nM and 24 nM and 23.2 nM
same,"BRET signal, raw replicate readings","human WT S1P5 receptor; ONO 0.169351 nM, Suppl. Fig. 6f",0.7609 and 0.7595 and 0.7587 and 0.7654 and 0.7615 and 0.7604 (2×) and 0.7628 and 0.7565
same,"BRET signal, raw replicate readings","human WT S1P5 receptor; ONO 0.508053 nM, Suppl. Fig. 6f",0.753 and 0.7592 and 0.758 and 0.7626 and 0.762 and 0.759 and 0.761 and 0.7561 and 0.756
same,"BRET signal, raw replicate readings","human WT S1P5 receptor; ONO 1.52416 nM, Suppl. Fig. 6f",0.748 and 0.7474 and 0.7478 (2×) and 0.7504 and 0.7525 and 0.7488 and 0.7446 and 0.7482
same,"BRET signal, raw replicate readings","human WT S1P5 receptor; ONO 4.57247 nM, Suppl. Fig. 6f",0.7341 and 0.7354 and 0.7359 and 0.7386 and 0.7387 and 0.7347 and 0.7361 and 0.7362 and 0.7324
same,"BRET signal, raw replicate readings","human WT S1P5 receptor; ONO 13.7174 nM, Suppl. Fig. 6f",0.7302 and 0.7285 and 0.7222 and 0.7325 and 0.7293 and 0.7332 and 0.7263 and 0.7276 and 0.7242
same,"BRET signal, raw replicate readings","human WT S1P5 receptor; ONO 41.1523 nM, Suppl. Fig. 6f",0.7214 and 0.7273 and 0.7219 and 0.7256 and 0.7267 and 0.7266 and 0.7211 and 0.723 and 0.7239
same,"BRET signal, raw replicate readings","human WT S1P5 receptor; ONO 123.457 nM, Suppl. Fig. 6f",0.7206
same,"BRET signal, raw replicate readings","human WT S1P5 receptor; ONO 370.37 nM, Suppl. Fig. 6f",0.7228 and 0.7223 and 0.7157 and 0.7233 and 0.7238 and 0.7187 and 0.7181 (2×) and 0.7189
same,"BRET signal, raw replicate readings","human WT S1P5 receptor; ONO 1111.11 nM, Suppl. Fig. 6f",0.7185 and 0.7195 and 0.7179 and 0.7229 and 0.7236 and 0.7207 and 0.7165 and 0.7204 and 0.7176
same,"BRET signal, raw replicate readings","human WT S1P5 receptor; ONO 3333.33 nM, Suppl. Fig. 6f",0.719 and 0.7164 and 0.7226 and 0.7203 and 0.722 and 0.7221 and 0.7173 and 0.7187 and 0.715
same,"BRET signal, raw replicate readings","human WT S1P5 receptor; ONO 10000 nM, Suppl. Fig. 6f",0.7216 and 0.7166 and 0.7165 and 0.7146 and 0.719 and 0.7226 and 0.7176 and 0.7153 and 0.7185
same,"BRET signal, raw replicate readings","human WT S1P5 receptor; ONO 10000 nM, Suppl. Fig. 6d",0.7216 and 0.7166 and 0.7165 and 0.7146 and 0.719 and 0.7226 and 0.7176 and 0.7153 and 0.7185
same,EC50,"human WT S1P5 receptor; ONO, pEC50, M, WT S1P5, mean ± SD, n=3",1.7 nM
same,EC50,"human WT S1P5 receptor; ONO-5430608 pEC50, single experiments #1-#3, WT S1P5, Figure 2c source data",1.35 nM and 2 nM and 1.8 nM
same,mode of action on Gi-protein-mediated signaling (basal activity level),"human WT S1P5 receptor; WT S1P5, BRET-based cAMP sensor",inverse agonist
same,EC50,"human S1P5 V115L mutant; ONO, pEC50, M, V115L, mean ± SD, n=3",25.1 nM
same,EC50,"human S1P5 V115L mutant; ONO-5430608 pEC50, single experiments #1-#3, V115L, Figure 2c source data",20.7 nM and 25.9 nM and 22.9 nM
same,"ONO-5430608 pEC50, single experiments #1-#3",human S1P5 Y89A mutant; [1],N/R
same,"ONO, pEC50, M","human S1P5 Y89A mutant; n=3, N/R = no response",N/R and abolishes the functional response
